Tested on: metastatic breast cancer
Test: FISH/clinical outcome study: chemotherapy +/- Herceptin, 1st line therapy
Assay type: in vivo, human
Description: The Clinical Testing Assay (CTA) involves two separate IHC assays performed with either monoclonal antibodies 4D5 (after protease digestion of the formalin fixed sample) or CB11 (after heat treatment of the formalin fixed sample). Subjects were eligible if either assay was scored at 2+ or 3+. If both were performed, the final score was the higher of the two results. […] Thus, formalin-fixed cut sections stored between 2.5 and 4.5 years from 540 subjects provided the sample pool for this study.

| Compound | Response rate of newly defined populations (2+/3+ population (469)) | Survival of newly defined populations (2+/3+ population (469)) [months] | Time to progression of newly defined populations (2+/3+ population (469)) [months] | Response rate of newly defined populations (3+ population (349)) | Survival of newly defined populations (3+ population (349)) [months] | Time to progression of newly defined populations (3+ population (349)) [months] | Response rate of newly defined populations (FISH+ population (240)) | Survival of newly defined populations (FISH+ population (240)) [months] | Time to progression of newly defined populations (FISH+ population (240)) [months] |
| --- | --- | --- | --- | --- | --- | --- | --- | --- | --- |
| CC(=O)O[C@H]1C(=O)[C@@]2(C)[C@H]([C@H](OC(=O)c3ccccc3)[C@]3(O)C[C@H](OC(=O)[C@H](O)[C@@H](NC(=O)c4ccccc4)c4ccccc4)C(C)=C1C3(C)C)[C@]1(OC(C)=O)CO[C@@H]1C[C@@H]2O [P, Paditaxol] | 17 | 18 | 2.7 | 17 | 18 | 3.0 | 14 | 14 | 3.2 |
| adrinomycin and cyclophosphamide [AC] | 42 | 21 | 6.1 | 42 | 21 | 6.0 | 40 | 20 | 6.2 |

Reference: patent US8592152B2, “Gene detection assay for improving the likelihood of an effective response to an EGFR antagonist cancer therapy” (Genentech, Inc., priority 2000, dated 2013)
